Laboratory results from PubChem BioAssay AID1918936 (Molecular Pharmacology Branch, DTP, NCI, 2023).
Where “and” joins values, the source holds several entries; their conditions need not be identical. Equal entries are not always repeated.

Tested on: 349418-098-R-PDC complex spheroid viability
Assay: Anticancer human tumor 349418-098-R-PDC patient-derived lung adenocarcinoma cell line growth inhibition
Conditions: for viability, T/C: stronger effect = lower value
Method in brief: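 Drug combinations with the LSD1 inhibitor iadademstat tested on tumor cells co-cultured as spheroids with endothelial cells and mesenchymal stem cells. Concentrations descended in half-log increments from clinical Cmax or 10 microM.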

[1] = curve of first compound, second compound 0.1 µM
[2] = curve of first compound, second compound 0.316 µM
[3] = curve of first compound, second compound 1 µM
[4] = curve of first compound, second compound 3.16 µM
[5] = curve of first compound, second compound 10 µM
[6] = second compound 0.1 µM, first compound 0.0316 µM
[7] = second compound 0.1 µM, first compound 0.1 µM
[8] = second compound 0.1 µM, first compound 0.316 µM
[9] = second compound 0.1 µM, first compound 1 µM
[10] = second compound 0.1 µM, first compound 3.16 µM
[11] = second compound 0.1 µM, first compound 10 µM
[12] = second compound 0.316 µM, first compound 0.0316 µM
[13] = second compound 0.316 µM, first compound 0.1 µM
[14] = second compound 0.316 µM, first compound 0.316 µM
[15] = second compound 0.316 µM, first compound 1 µM
[16] = second compound 0.316 µM, first compound 3.16 µM
[17] = second compound 0.316 µM, first compound 10 µM
[18] = second compound 1 µM, first compound 0.0316 µM
[19] = second compound 1 µM, first compound 0.1 µM
[20] = second compound 1 µM, first compound 0.316 µM
[21] = second compound 1 µM, first compound 1 µM
[22] = second compound 1 µM, first compound 3.16 µM
[23] = second compound 1 µM, first compound 10 µM
[24] = second compound 3.16 µM, first compound 0.0316 µM
[25] = second compound 3.16 µM, first compound 0.1 µM
[26] = second compound 3.16 µM, first compound 0.316 µM
[27] = second compound 3.16 µM, first compound 1 µM
[28] = second compound 3.16 µM, first compound 3.16 µM
[29] = second compound 3.16 µM, first compound 10 µM
[30] = second compound 10 µM, first compound 0.0316 µM
[31] = second compound 10 µM, first compound 0.1 µM
[32] = second compound 10 µM, first compound 0.316 µM
[33] = second compound 10 µM, first compound 1 µM
[34] = second compound 10 µM, first compound 3.16 µM
[35] = second compound 10 µM, first compound 10 µM
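Further: spheroids exposed to agents for seven days before readout.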
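Wherever viability, T/C is given: 100% = DMSO vehicle control wells.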

Nc1ccccc1NC(=O)c1ccc(CNC(=O)OCc2cccnc2)cc1 + NC1CCC(NC2CC2c2ccccc2)CC1
IC50 [1]: 244 nM | IC50 [2]: 279 nM | IC50 [3]: 224 nM | IC50 [4]: 314 nM | IC50 [5]: 269 nM | viability, T/C (second compound 0.1 µM, first compound 0.00949 µM): 106% | viability, T/C (second compound 0.1 µM, first compound 0.03 µM): 88.6% | viability, T/C (second compound 0.1 µM, first compound 0.0949 µM): 76.2% | viability, T/C (second compound 0.1 µM, first compound 0.3 µM): 46.2% | viability, T/C (second compound 0.1 µM, first compound 0.949 µM): 15.4% | viability, T/C (second compound 0.1 µM, first compound 3 µM): 5.1% | viability, T/C (second compound 0.316 µM, first compound 0.00949 µM): 102% | viability, T/C (second compound 0.316 µM, first compound 0.03 µM): 97.3% | viability, T/C (second compound 0.316 µM, first compound 0.0949 µM): 81.8% | viability, T/C (second compound 0.316 µM, first compound 0.3 µM): 48.9% | viability, T/C (second compound 0.316 µM, first compound 0.949 µM): 15.4% | viability, T/C (second compound 0.316 µM, first compound 3 µM): 5.32% | viability, T/C (second compound 1 µM, first compound 0.00949 µM): 117% | viability, T/C (second compound 1 µM, first compound 0.03 µM): 85.9% | viability, T/C (second compound 1 µM, first compound 0.0949 µM): 73.6% | viability, T/C (second compound 1 µM, first compound 0.3 µM): 46.3% | viability, T/C (second compound 1 µM, first compound 0.949 µM): 15.9% | viability, T/C (second compound 1 µM, first compound 3 µM): 5.11% | viability, T/C (second compound 3.16 µM, first compound 0.00949 µM): 104% | viability, T/C (second compound 3.16 µM, first compound 0.03 µM): 85.8% | viability, T/C (second compound 3.16 µM, first compound 0.0949 µM): 83.6% | viability, T/C (second compound 3.16 µM, first compound 0.3 µM): 53% | viability, T/C (second compound 3.16 µM, first compound 0.949 µM): 15.6% | viability, T/C (second compound 3.16 µM, first compound 3 µM): 5.33% | viability, T/C (second compound 10 µM, first compound 0.00949 µM): 96.1% | viability, T/C (second compound 10 µM, first compound 0.03 µM): 91.1% | viability, T/C (second compound 10 µM, first compound 0.0949 µM): 75.5% | viability, T/C (second compound 10 µM, first compound 0.3 µM): 50.2% | viability, T/C (second compound 10 µM, first compound 0.949 µM): 12.7% | viability, T/C (second compound 10 µM, first compound 3 µM): 4.33%

CC(C)CC(NC(=O)C(Cc1ccccc1)NC(=O)c1cnccn1)B(O)O (stereo unspecified)
viability, T/C (compound 0.000316 µM): 9.44% and 1.92% | viability, T/C (compound 0.001 µM): 1.9% and 1.46% | viability, T/C (compound 0.00316 µM): 1.14% and 0.84% | viability, T/C (compound 0.01 µM): 0.78% and 0.64% | viability, T/C (compound 0.0316 µM): 0.63% and 0.42% | viability, T/C (compound 0.1 µM): 0.67% and 0.41% | IC50 (curve of compound): < 0.316 nM

Nc1ccn(C2OC(CO)C(O)C2(F)F)c(=O)n1 (stereo unspecified)
viability, T/C (compound 0.000949 µM): 5.35% and 15% | viability, T/C (compound 0.003 µM): 5.18% and 4.23% | viability, T/C (compound 0.00949 µM): 4.99% and 4.4% | viability, T/C (compound 0.03 µM): 4% and 4.8% | viability, T/C (compound 0.0949 µM): 4.25% and 4.46% | viability, T/C (compound 0.3 µM): 4.05% and 4.24% | IC50 (curve of compound): < 0.949 nM

CC(C)CC(NC(=O)CNC(=O)c1cc(Cl)ccc1Cl)B1OC(=O)CC(CC(=O)O)(C(=O)O)O1 (stereo unspecified)
viability, T/C (compound 0.000316 µM): 88.8% and 103% | viability, T/C (compound 0.001 µM): 24.5% and 38.9% | viability, T/C (compound 0.00316 µM): 4.47% and 4.31% | viability, T/C (compound 0.01 µM): 2.14% and 2% | viability, T/C (compound 0.0316 µM): 1.69% and 1.05% | viability, T/C (compound 0.1 µM): 1.35% and 1.12% | IC50 (curve of compound): 0.633 nM and 0.818 nM

CC1(C)CCC(CN2CCN(c3ccc(C(=O)NS(=O)(=O)c4ccc(NCC5CCOCC5)c([N+](=O)[O-])c4)c(Oc4cnc5[nH]ccc5c4)c3)CC2)=C(c2ccc(Cl)cc2)C1 + NC1CC1c1ccc(-c2cccc(O)c2)cc1
IC50 [1]: 1860 nM | IC50 [2]: 1870 nM | IC50 [3]: 2030 nM | IC50 [4]: 2030 nM | IC50 [5]: 1700 nM | viability, T/C [6]: 111% | viability, T/C [7]: 106% | viability, T/C [8]: 104% | viability, T/C [9]: 80.5% | viability, T/C [10]: 23.9% | viability, T/C [11]: 0.38% | viability, T/C [12]: 113% | viability, T/C [13]: 111% | viability, T/C [14]: 108% | viability, T/C [15]: 82.5% | viability, T/C [16]: 22.9% | viability, T/C [17]: 0.15% | viability, T/C [18]: 119% | viability, T/C [19]: 113% | viability, T/C [20]: 108% | viability, T/C [21]: 94.1% | viability, T/C [22]: 22.5% | viability, T/C [23]: 0.17% | viability, T/C [24]: 118% | viability, T/C [25]: 109% | viability, T/C [26]: 112% | viability, T/C [27]: 95.2% | viability, T/C [28]: 21.9% | viability, T/C [29]: 0.16% | viability, T/C [30]: 96.3% | viability, T/C [31]: 98.9% | viability, T/C [32]: 93.2% | viability, T/C [33]: 83.7% | viability, T/C [34]: 10.5% | viability, T/C [35]: 0.58%

O=C(C=Cn1cnc(-c2cc(C(F)(F)F)cc(C(F)(F)F)c2)n1)NNc1cnccn1 + NC1CCC(NC2CC2c2ccccc2)CC1
IC50 [1]: < 3.16 nM | IC50 [2]: < 3.16 nM | IC50 [3]: < 3.16 nM | IC50 [4]: < 3.16 nM | IC50 [5]: < 3.16 nM | viability, T/C (second compound 0.1 µM, first compound 0.00316 µM): 19.9% | viability, T/C (second compound 0.1 µM, first compound 0.01 µM): 8.25% | viability, T/C [6]: 7.06% | viability, T/C [7]: 4.2% | viability, T/C [8]: 3.1% | viability, T/C [9]: 2.53% | viability, T/C (second compound 0.316 µM, first compound 0.00316 µM): 16.7% | viability, T/C (second compound 0.316 µM, first compound 0.01 µM): 8.83% | viability, T/C [12]: 6.85% | viability, T/C [13]: 4.29% | viability, T/C [14]: 3.65% | viability, T/C [15]: 2.34% | viability, T/C (second compound 1 µM, first compound 0.00316 µM): 22.8% | viability, T/C (second compound 1 µM, first compound 0.01 µM): 8.34% | viability, T/C [18]: 6.23% | viability, T/C [19]: 4.78% | viability, T/C [20]: 2.92% | viability, T/C [21]: 2.31% | viability, T/C (second compound 3.16 µM, first compound 0.00316 µM): 21% | viability, T/C (second compound 3.16 µM, first compound 0.01 µM): 8.38% | viability, T/C [24]: 7.11% | viability, T/C [25]: 4.9% | viability, T/C [26]: 3.12% | viability, T/C [27]: 2.6% | viability, T/C (second compound 10 µM, first compound 0.00316 µM): 17.9% | viability, T/C (second compound 10 µM, first compound 0.01 µM): 9.32% | viability, T/C [30]: 6.65% | viability, T/C [31]: 4.32% | viability, T/C [32]: 3.64% | viability, T/C [33]: 2.6%

CC(C)c1c(-c2ccccc2)nc2c(C#N)c[nH]n2c1=O + NC1CCC(NC2CC2c2ccccc2)CC1
IC50 [1]: > 10000 nM | IC50 [2]: > 10000 nM | IC50 [3]: > 10000 nM | IC50 [4]: > 10000 nM | IC50 [5]: > 10000 nM | viability, T/C [6]: 108% | viability, T/C [7]: 112% | viability, T/C [8]: 93.7% | viability, T/C [9]: 105% | viability, T/C [10]: 104% | viability, T/C [11]: 88.1% | viability, T/C [12]: 108% | viability, T/C [13]: 110% | viability, T/C [14]: 113% | viability, T/C [15]: 104% | viability, T/C [16]: 101% | viability, T/C [17]: 98.8% | viability, T/C [18]: 104% | viability, T/C [19]: 113% | viability, T/C [20]: 108% | viability, T/C [21]: 100% | viability, T/C [22]: 104% | viability, T/C [23]: 93.8% | viability, T/C [24]: 96.4% | viability, T/C [25]: 92.5% | viability, T/C [26]: 113% | viability, T/C [27]: 108% | viability, T/C [28]: 102% | viability, T/C [29]: 87.3% | viability, T/C [30]: 101% | viability, T/C [31]: 84.1% | viability, T/C [32]: 108% | viability, T/C [33]: 93.6% | viability, T/C [34]: 86.4% | viability, T/C [35]: 78.7%
